Assay results published in US20090143279A1 (priority 2007, published 2009).
Read-outs that look alike come from different tables or passages of the source.

How the values were obtained:
[1] = test system: mitochondrial membrane potential; assay type: cell-based, mouse
[2] = test system: reactive oxygen species; assay type: cell-based, mouse
[3] = test system: OXPHOS gene expression; assay type: cell-based, mouse
[4] = test system: nuOXPHOS transcripts; assay type: cell-based, mouse
[5] = test system: mtOXPHOS transcripts; assay type: cell-based, mouse
[6] = test system: cytochrome c; assay type: cell-based, mouse
[7] = test system: C2C12 myotubes
[8] = test system: cellular dehydrogenase activity
[9] = normalized composite Z-score vs mock-treated (DMSO) wells, Conc 20 μM
[10] = composite Z-score vs mock-treated (DMSO) wells, Conc 20 μM
[11] = Conc 20 μM, normalized score vs mock-treated (DMSO) wells
[12] = Table 6, C2C12 myotubes, 48 h, composite Z-score
[13] = composite Z-score vs DMSO, Conc 20 μM

| Structure (SMILES) | ΔΨm [1, 9] | ROS [2, 9] | GE-HTS [3, 9] | nucOX [4, 9] | mitoOX [5, 9] | cyt c [6, 9] | Viability [7, 9] | MTT [8, 9] | other results |
| --- | --- | --- | --- | --- | --- | --- | --- | --- | --- |
| CC1CC(O)C2OC1CC1C(CC1(C)C)C2C (stereo not shown) [3,7-epoxycaryophyllan-6-ol] | −0.461 | 0.255 | −1.018 | −1.203 | −0.407 | 0.604 | −0.644 | −1.302 |  |
| COc1c(-c2ccccc2)oc2c(OC)cccc2c1=O [3,8-dimethoxyflavone] | −0.103 | 1.553 | 0.399 | 0.315 | 0.492 | 0.361 | 0.930 | −0.252 |  |
| COC(=O)C[C@H]1C(C)(C)[C@@H](O)[C@@H]2CC3=C4CC(O)O[C@@H](c5ccoc5)[C@]4(C)CCC3[C@@]1(C)C2=O (stereo partly drawn) [3,16-dideoxymexicanolide-3beta-diol] | 0.154 | 0.587 | 0.150 | 0.282 | −0.202 | −0.130 | −0.384 | −1.091 |  |
| CC(=O)OC1CC[C@@]2(C)C(CC[C@H]3[C@@H]4CC=C(C(C)=O)[C@@]4(C)C(=O)C[C@@H]32)C1 (stereo partly shown) [3-acetoxypregn-16-en-12,20-dione] |  |  |  |  |  |  |  |  | ΔΨm [1, 10]: −0.216; ROS [2, 10]: 0.201; GE-HTS [3, 10]: −0.885; nucOX [4, 10]: −0.775; mitoOX [5, 10]: −0.958; cyt c [6, 10]: −0.050; Viability [7, 10]: −0.873; MTT [8, 10]: −0.553 |
| CC(=O)O[C@@H]1CC2C(C)(C)[C@H](O)C=C[C@]2(C)C2CC[C@]3(C)C(=CC(=O)O[C@H]3c3ccoc3)[C@@]21C (stereo partly drawn) [3-alpha-hydroxydeoxygedinin] |  |  |  |  |  |  |  |  | ΔΨm (composite Z-score) [1, 11]: 1.760; ROS (composite Z-score) [2, 11]: 0.531; GE-HTS (composite Z-score) [3, 11]: −1.171; nucOX (composite Z-score) [4, 11]: −1.202; mitoOX (composite Z-score) [5, 11]: −0.939; cyt c (composite Z-score) [6, 11]: −0.321; Viability (composite Z-score) [7, 11]: 0.156; MTT (composite Z-score) [8, 11]: −0.319 |
| C=C1C(N)CC2CC1C2(C)C (stereo not drawn) [3-amino-beta-pinene] | −0.519 | 0.421 | −1.376 | −1.341 | −1.138 | 0.460 | −0.108 | −0.906 |  |
| CC(=O)C(=Cc1ccccc1)CC(=O)O [3-benzylidenyl-levulinic acid] |  |  |  |  |  |  |  |  | ΔΨm (composite Z-score) [1]: −0.170; ROS (composite Z-score) [2]: 0.382; GE-HTS (composite Z-score) [3]: −0.639; nucOX (composite Z-score) [4]: −0.553; mitoOX (composite Z-score) [5]: −0.647; cyt c (composite Z-score) [6]: −0.165; Viability (composite Z-score) [7]: −0.431; MTT (composite Z-score) [8]: −0.665 |
| CC(=O)O[C@H]1C[C@@H](O)C(C)(C)[C@@H]2C[C@@H](OC(C)=O)[C@]3(C)[C@H](CC[C@@]4(C)[C@@H](c5ccoc5)OC(=O)[C@H]5O[C@@]534)[C@@]12C [3-deacetylkhivorin] | 0.274 | 0.619 | −0.661 | −0.823 | −0.272 | −0.600 | 0.398 | −0.317 |  |
| COc1ccc2c(c1)OCC(Cc1ccc(OC)c(OC)c1)C2O (stereo not shown) [3-deshydroxysappanol trimethyl ether, reference compound] | 0.033 | 1.385 | 0.465 | 0.557 | 0.224 | −0.948 | 0.416 | −0.416 | ROS Zscore [2, 12]: 1.3852; GEHTS_Zscore [3, 12]: 1.970 |
| Cc1cc(O)c(C)c(O)c1C(=O)O [3-methylorsellinic acid] |  |  |  |  |  |  |  |  | ΔΨm [1, 13]: −0.030; ROS [2, 13]: 0.860; GE-HTS [3, 13]: −1.005; nucOX [4, 13]: −1.318; mitoOX [5, 13]: −0.108; cyt c [6, 13]: 0.321; Viability [7, 13]: −0.494; MTT [8, 13]: −1.253 |
